These compounds were tested against T1, Prostaglandin G/H synthase 1 (Ovis aries, UniProt P05979).
T1 sequence (P05979 whole entry): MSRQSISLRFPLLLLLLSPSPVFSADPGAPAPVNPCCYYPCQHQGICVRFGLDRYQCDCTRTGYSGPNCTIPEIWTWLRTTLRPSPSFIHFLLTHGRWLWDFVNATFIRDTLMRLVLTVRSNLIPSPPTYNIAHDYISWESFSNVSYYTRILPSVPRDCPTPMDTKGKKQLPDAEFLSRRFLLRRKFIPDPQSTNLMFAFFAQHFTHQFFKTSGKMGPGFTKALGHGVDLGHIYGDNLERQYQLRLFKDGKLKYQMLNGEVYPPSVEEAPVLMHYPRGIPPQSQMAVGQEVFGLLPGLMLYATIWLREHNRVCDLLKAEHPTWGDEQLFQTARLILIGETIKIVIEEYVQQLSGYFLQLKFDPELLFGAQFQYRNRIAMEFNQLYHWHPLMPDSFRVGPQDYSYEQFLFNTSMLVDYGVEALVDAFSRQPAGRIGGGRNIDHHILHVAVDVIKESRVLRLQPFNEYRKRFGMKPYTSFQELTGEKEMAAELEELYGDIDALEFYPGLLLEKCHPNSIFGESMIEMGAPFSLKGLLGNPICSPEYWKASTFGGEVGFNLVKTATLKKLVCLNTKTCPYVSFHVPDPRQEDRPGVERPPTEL
Description: Inhibition of ovine COX1 by chemiluminescent enzyme assay

Row | SMILES | IC50 [µM]
1 | CS(=O)(=O)c1ccc(-c2cc(C(=O)O)c3ccc4ccccc4c3n2)cc1 | 17.6
2 | Cc1ccc2c(C(=O)O)cc(-c3ccc(S(C)(=O)=O)cc3)nc2c1C | 14.5
3 | Cc1cccc2c(C(=O)O)cc(-c3ccc(S(C)(=O)=O)cc3)nc12 | 14.2
4 | CS(=O)(=O)c1ccc(-c2cc(C(=O)O)c3ccccc3n2)cc1 | 13.4
5 | CS(=O)(=O)c1ccc(-c2cc(C(=O)O)c3cccc(-c4ccccc4)c3n2)cc1 | 14.7
6 | CS(=O)(=O)c1ccc(-c2cc(C(=O)O)c3ccc4c(c3n2)CCCC4)cc1 | 22.1
